Experimental data published in US7728146B2, “Enzyme inhibitors” (Probiodrug AG, priority 2006, dated 2010).

Test system: liver cell carcinoma cell line Hep-G2
Test: Cytotoxicity screening and LD50 determination on Hep-G2 (LDH, CytoTox-One)
Type: cell-based
Details: 100 μM, Hep-G2
Description: Cytotoxicity of the compounds may be screened using the liver cell carcinoma cell line Hep-G2.
After 24 h of cultivation in a 96 well plate (50 000 cells/well) compounds (dissolved in DMSO) are added and cytotoxicity and vitality of the cells are analysed after another 24 h of cultivation using the CytoTox-One Homogenoeous membrane toxicity assay (Promega).
Three concentrations (100 μM, 2 μM, 40 nM) of each compound are analysed in triplicates. The final DMSO concentration was 1%.
For cytotoxicity the LDH activity in the cell culture media after 24 h of incubation are analysed. The untreated control is set to 0% cytotoxicity. For the 100% value LDH activity of lysed untreated cells are analysed.
For viability cell culture media are removed from the cells and all cells are lysed using the lysis buffer. LDH activity is determined and untreated control is set to 100% viability.
For determination of LD50 the liver carcinoma cell line HEP-G2 and the neuroblastoma cell line SY5Y may be used. The effect of 8 serial dilutions of the compounds (highest concentration 1 mM) is investigated as described above.
The cytotoxicity of certain example compounds (in each case prepared by preparative synthesis) was screened using Hep-G2 cells. Compounds were tested in concentrations of 100 μM, 2 μM and 40 nM.

With `NCc1c(-c2ccc(Cl)cc2Cl)ncn1CC12CC3CC(CC(C3)C1)C2` [Example 14b, C-[3-Adamantan-1-ylmethyl-5-(2,4-dichloro-phenyl)-3H-imidazol-4-yl]-methylamine] the “cytotoxic effects (summary in words)” value was “No cytotoxic effects”.
`CCCCCn1cnc(-c2ccc(Cl)cc2Cl)c1CN` [Example 12b, C-[5-(2,4-Dichloro-phenyl)-3-pentyl-3H-imidazol-4-yl]-methylamine] was tested, and the “cytotoxic effects (summary in words)” value was “No cytotoxic effects”.
For `CC(N)c1c(-c2ccc(Cl)cc2Cl)ncn1CCc1ccccc1` (stereo not drawn) [Example 2b, 1-[5-(2,4-Dichloro-phenyl)-3-phenethyl-3H-imidazol-4-yl]-ethylamine], the “cytotoxic effects (summary in words)” value was “No cytotoxic effects”.
In the case of `Cc1ccccc1Cn1cnc(-c2ccc(Cl)cc2Cl)c1C(C)N` (stereo not drawn) [Example 15b, 1-[5-(2,4-Dichloro-phenyl)-3-(2-methyl-benzyl)-3H-imidazol-4-yl]-ethylamine], the “cytotoxic effects (summary in words)” value is reported as “No cytotoxic effects”.

Target: DP IV (Homo sapiens, UniProt P27487)
Test: DP IV inhibition IC50, parallel-synthesis compounds tested directly following synthesis (without purification)
Type: biochemical
Design: IC50 DP4; other: tested directly following parallel synthesis, without purification; compounds of formula (Ib) from parallel synthesis, tested directly following synthesis
Details: DP IV inhibition; compounds of formula (Ib) from parallel synthesis, tested directly following synthesis (without purification); read-out: IC50
Outline: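 IC50 came from a 4-parameter fit of residual activity (linear 405 nm slopes for pNA release over ~18 min, relative to solvent-only wells). Gly-Pro-pNA was the substrate, cleaved by porcine kidney or recombinant human DP IV at room temperature in HEPES with 5% DMSO; duplicate 1:2 series started at 100 μM final.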

In order of falling IC50:
1. NCCCc1c(-c2ccc(Cl)cc2Cl)ncn1CCc1cccc(Cl)c1 [107b, 3-[3-[2-(3-Chloro-phenyl)-ethyl]-5-(2,4-dichloro-phenyl)-3H-imidazol-4-yl]-propylamine]  42.4 µM
2. NCc1c(-c2ccc(Cl)cc2Cl)ncn1CCN1CCCCC1 [58b, C-[5-(2,4-Dichloro-phenyl)-3-(2-piperidin-1-yl-ethyl)-3H-imidazol-4-yl]-methylamine]  42.4 µM
3. CC(N)c1c(-c2ccc(Cl)cc2Cl)ncn1CCCCCCO (stereo not drawn) [34b, 6-[5-(1-Amino-ethyl)-4-(2,4-dichloro-phenyl)-imidazol-1-yl]-hexan-1-ol]  38.8 µM
4. CC(N)c1c(-c2ccc(Cl)cc2Cl)ncn1CCc1ccccc1 (stereo not drawn) [Example 2b, 1-[5-(2,4-Dichloro-phenyl)-3-phenethyl-3H-imidazol-4-yl]-ethylamine]  32.5 µM
5. CCCCCn1cnc(-c2ccc(Cl)cc2Cl)c1C(C)N (stereo not drawn) [115b, 1-[5-(2,4-Dichloro-phenyl)-3-pentyl-3H-imidazol-4-yl]-ethylamine]  29.8 µM
6. CC(N)c1c(-c2ccc(Cl)cc2Cl)ncn1CCCCc1ccccc1 (stereo not drawn) [106b, 1-[5-(2,4-Dichloro-phenyl)-3-(4-phenyl-butyl)-3H-imidazol-4-yl]-ethylamine]  28 µM
7. NCc1c(-c2ccc(Cl)cc2Cl)ncn1Cc1ccc(C(F)(F)F)cc1 [98b, C-[5-(2,4-Dichloro-phenyl)-3-(4-trifluoromethyl-benzyl)-3H-imidazol-4-yl]-methylamine]  27.1 µM
8. COc1ccc(CCn2cnc(-c3ccc(Cl)cc3Cl)c2CN)cc1 [45b, C-{5-(2,4-Dichloro-phenyl)-3-[2-(4-methoxy-phenyl)-ethyl]-3H-imidazol-4-yl}-methylamine]  27.1 µM
9. Cc1ccc(Cn2cnc(-c3ccc(Cl)cc3Cl)c2C(C)N)cc1 (stereo not drawn) [116b, 1-[5-(2,4-Dichloro-phenyl)-3-(4-methyl-benzyl)-3H-imidazol-4-yl]-ethylamine]  23.5 µM
10. Cc1cc(Cn2cnc(-c3ccc(Cl)cc3Cl)c2CN)no1 [13b, C-[5-(2,4-Dichloro-phenyl)-3-(5-methyl-isoxazol-3-ylmethyl)-3H-imidazol-4-yl]-methylamine]  20.8 µM
11. NCc1c(-c2ccc(Cl)cc2Cl)ncn1CC12CC3CC(CC(C3)C1)C2 [Example 14b, C-[3-Adamantan-1-ylmethyl-5-(2,4-dichloro-phenyl)-3H-imidazol-4-yl]-methylamine]  19 µM
12. Cc1ccccc1Cn1cnc(-c2ccc(Cl)cc2Cl)c1C(C)N (stereo not drawn) [Example 15b, 1-[5-(2,4-Dichloro-phenyl)-3-(2-methyl-benzyl)-3H-imidazol-4-yl]-ethylamine]  19 µM
13. NCCc1c(-c2ccc(Cl)cc2Cl)ncn1CCNc1ccc([N+](=O)[O-])cn1 [79b, {2-[5-(2-Amino-ethyl)-4-(2,4-dichloro-phenyl)-imidazol-1-yl]-ethyl}-(5-nitro-pyridin-2-yl)-amine]  16.3 µM
14. NCc1c(-c2ccc(Cl)cc2Cl)ncn1Cc1cccc(C(F)(F)F)c1F [50b, C-[5-(2,4-Dichloro-phenyl)-3-(2-fluoro-3-trifluoromethyl-benzyl)-3H-imidazol-4-yl]-methylamine]  15.4 µM
15. COc1ccc(Cn2cnc(-c3ccc(Cl)cc3Cl)c2CN)cc1 [35b, C-[5-(2,4-Dichloro-phenyl)-3-(4-methoxy-benzyl)-3H-imidazol-4-yl]-methylamine]  11.8 µM
16. NCc1c(-c2ccc(Cl)cc2Cl)ncn1CCc1cccnc1 [9b, C-[5-(2,4-Dichloro-phenyl)-3-(2-pyridin-3-yl-ethyl)-3H-imidazol-4-yl]-methylamine]  7.3 µM
17. CCCCCn1cnc(-c2ccc(Cl)cc2Cl)c1CN [Example 12b, C-[5-(2,4-Dichloro-phenyl)-3-pentyl-3H-imidazol-4-yl]-methylamine]  6.4 µM
18. NCc1c(-c2ccc(Cl)cc2Cl)ncn1CCc1ccccc1F [83b, C-{5-(2,4-Dichloro-phenyl)-3-[2-(2-fluoro-phenyl)-ethyl]-3H-imidazol-4-yl}-methylamine]  5.5 µM
19. COc1ccccc1Cn1cnc(-c2ccc(Cl)cc2Cl)c1C(C)N (stereo not drawn) [80b, 1-[5-(2,4-Dichloro-phenyl)-3-(2-methoxy-benzyl)-3H-imidazol-4-yl]-ethylamine]  2.8 µM
20. NCc1c(-c2ccc(Cl)cc2Cl)ncn1Cc1cc(F)ccc1F [119b, C-[5-(2,4-Dichloro-phenyl)-3-(2,5-difluoro-benzyl)-3H-imidazol-4-yl]-methylamine]  2.8 µM

Same assay, conditions: tested directly following parallel synthesis, without purification; read-out: IC50 DP4

In order of falling IC50:
1. NCc1c(-c2ccc(F)cc2F)ncn1Cc1cccc(F)c1 [Example 78a, C-[5-(2,4-Difluoro-phenyl)-3-(3-fluoro-benzyl)-3H-imid-azol-4-yl]-methyl-amine]  46 µM
2. Cc1ccc(-c2ncn(Cc3ccccc3)c2CN)c(C)c1 [Example 69a, C-[3-Benzyl-5-(2,4-di-methyl-phenyl)-3H-imid-azol-4-yl]-methyl-amine]  40.6 µM
3. NCc1c(-c2ccc(F)cc2Cl)ncn1Cc1c(Cl)cccc1Cl [Example 26a, C-[5-(2-Chloro-4-fluoro-phenyl)-3-(2,6-di-chloro-benzyl)-3H-imid-azol-4-yl]-methyl-amine]  39.7 µM
4. Cc1ccc(Cn2cnc(-c3ccc(F)cc3Cl)c2CN)o1 [Example 4a, C-[5-(2-Chloro-4-fluo-ro-phenyl)-3-(5-meth-yl-furan-2-yl-methyl)-3H-imid-azol-4-yl]-methyl-amine]  34.3 µM
5. NCc1c(-c2ccc(F)cc2F)ncn1Cc1cccc(C(F)(F)F)c1 [Example 75a, C-[5-(2,4-Difluoro-phenyl)-3-(3-tri-fluoromethyl-benzyl)-3H-imid-azol-4-yl]-methyl-amine]  28.9 µM
6. NCc1c(-c2ccc(F)cc2F)ncn1Cc1cccnc1 [Example 89a, C-[5-(2,4-Difluoro-phenyl)-3-pyri-din-3-yl-methyl-3H-imid-azol-4-yl]-methyl-amine]  22.6 µM
7. NCc1c(-c2ccc(F)cc2Cl)ncn1Cc1ccc(F)c(F)c1 [Example 17a, C-[5-(2-Chloro-4-fluoro-phenyl)-3-(3,4-difluoro-benzyl)-3H-imid-azol-4-yl]-methyl-amine]  19 µM
8. NCc1c(-c2ccc(F)cc2Cl)ncn1Cc1ccccc1Cl [Example 3a, C-[3-(2-Chloro-benzyl)-5-(2-chlo-ro-4-fluoro-phenyl)-3H-imid-azol-4-yl]-methyl-amine]  18.1 µM
9. NCc1c(-c2ccc(F)cc2Cl)ncn1Cc1ccccc1 [Example 15, C-[3-Benzyl-5-(2-chloro-4-fluoro-phenyl)-3H-imid-azol-4-yl]-methyl-amine]  10.9 µM
10. CCCn1cnc(-c2ccc(Cl)cc2Cl)c1CN [Example 40a, C-[5-(2,4-Dichloro-phenyl)-3-pro-pyl-3H-imid-azol-4-yl]-methyl-amine]  3.7 µM
11. NCc1c(-c2ccc(Cl)cc2Cl)ncn1Cc1cccc(Cl)c1Cl [Example 52a, C-[3-(2,3-Dichloro-benzyl)-5-(2,4-dichloro-phenyl)-3H-imid-azol-4-yl]-methyl-amine]  2.8 µM
12. NCc1c(-c2ccc(Cl)cc2Cl)ncn1Cc1ccc(Cl)cc1 [Example 54a, C-[3-(4-Chloro-benzyl)-5-(2,4-dichloro-phenyl)-3H-imid-azol-4-yl]-methyl-amine]  1.9 µM
13. NCc1c(-c2ccc(Cl)cc2Cl)ncn1Cc1ccc(F)cc1Cl [Example 63a, C-[3-(2-Chloro-4-fluoro-benzyl)-5-(2,4-di-chloro-phenyl)-3H-imid-azol-4-yl]-methyl-amine]  1.9 µM
14. NCc1c(-c2ccc(Cl)cc2Cl)ncn1Cc1ccccn1 [Example 65a, C-[5-(2,4-Dichloro-phenyl)-3-pyri-din-2-yl-methyl-3H-imid-azol-4-yl]-methyl-amine]  1.9 µM
15. NCc1c(-c2ccc(Cl)cc2Cl)ncn1Cc1cccc(C(F)(F)F)c1 [Example 38a, C-[5-(2,4-Dichloro-phenyl)-3-(3-tri-fluoromethyl-benzyl)-3H-imid-azol-4-yl]-methyl-amine]  1 µM
16. CC(C)(C)Cn1cnc(-c2ccc(Cl)cc2Cl)c1CN [Example 53a, C-[5-(2,4-Dichloro-phenyl)-3-(2,2-dimethyl-propyl)-3H-imid-azol-4-yl]-methyl-amine]  1 µM
17. CCOc1ccccc1Cn1cnc(-c2ccc(Cl)cc2Cl)c1CN [Example 50a, C-[5-(2,4-Dichloro-phenyl)-3-(2-ethoxy-benzyl)-3H-imid-azol-4-yl]-methyl-amine]  0.1 µM
18. NCc1c(-c2ccc(Cl)cc2Cl)ncn1Cc1cccnc1 [Example 66a, C-[5-(2,4-Dichloro-phenyl)-3-pyri-din-3-yl-methyl-3H-imid-azol-4-yl]-methyl-amine]  0.1 µM
